For 35 molecules, melting point results are on record in a melting point compilation (Tetko et al.; mined from patent text by program, amines drawn as free bases though some values may be those of a salt).

Some results are limits rather than exact numbers.

In the case of `CC(C)COc1c(C2CCN(CCCCNC(=O)c3ccc(-c4ccc(C(F)(F)F)cc4)cc3)CC2)ccc2c1CCCC2`, the melting point was 165 °C.

In turn, `Cn1c(-c2ccc(OC3CCN(C4CCC4)CC3)cc2)nc2cccnc2c1=O` yielded a melting point of 182 to 183 °C.

For the molecule `[N-]=[N+]=NC[C@H]1CN(c2cccc(F)c2)C(=O)O1`, the melting point was 81 to 82 °C.

On to `CC(C)(C)c1cc(CCc2ccccc2NC(=O)NC2CCN(Cc3ccccn3)CC2)cc(C(C)(C)C)c1O`, for which the melting point was 106 to 109 °C.

Take `Cc1cc(-c2cc(C(F)F)n3ncc(C(=O)Nc4cccc(S(=O)(=O)N5CCCC5)c4)c3n2)ccc1C(F)(F)F`: the melting point stood at 226 °C.

`COc1ccc2c(n1)C1(CO2)C(=O)N(Cc2ccc(C(F)(F)F)o2)c2cccc(Cl)c21` (stereo not given) gave a melting point of 106 to 108 °C.

On to `O=C(NC1CCN(CCc2cccc(F)c2)C1)C12CC3CC(CC(C3)C1)C2` (stereo not given), for which the melting point lay in the range of 87 to 89 °C.

In turn, `COc1cccc2c1-c1c(OC(C)C)cccc1C2=O` had a melting point of 118 to 120 °C.

Molecule `CC(=O)n1ccc(=O)c(O)c1C` had a melting point of 152 to 160 °C.

`CCC(=O)C1CCC2C3CCC4CC(=O)CCC4(C)C3C(=O)CC12C` (stereo not given) gave a melting point of 148 °C.

As for `CC(C)C(OC(=O)NC(C)(Cc1ccccc1)C(=O)NC(C)(C)c1ccccc1)c1ccccc1` (stereo not given), the melting point was 115 to 123 °C.

`Cn1ccc(=O)c(CO)c1`: the melting point was in the range of 185 to 186 °C.

`CCn1c(=O)c(C)cc2cnc(SC)nc21` returned a melting point of 84 to 86 °C.

The molecule `COc1cc2nc(-c3cc(C)c(OCC(N)=O)c(C)c3)[nH]c(=O)c2cc1OC` registered a melting point of 354 to 356 °C.

`COc1cc(Nc2c(C#N)cnc3cc(SCc4ccccc4)c(OC)cc23)c(Cl)cc1Cl`: the melting point lay in the range of 123 to 125 °C.

As for `C#CC(C)(O)c1ccc(Oc2ccc(Cl)cc2)cc1` (stereo not given), the melting point lay within 55 to 57 °C.

The molecule `CCOC(=O)C1=C(N)N=C(N(C)C)C(C(=O)OCC)C1c1cccc([N+](=O)[O-])c1` (stereo not given) had a melting point of 149 °C.

With `O=c1ccoc(CO)c1O`, the melting point was 154 to 156 °C.

Turning to `COc1c(Cl)cc(C(=O)O)c2c1OCCO2`, the melting point came out at 172 °C.

As for `Cn1ccnc1CCNS(=O)(=O)c1ccccc1[N+](=O)[O-]`, the melting point lay in the range of 193 to 199 °C.

For `O=C1c2ccccc2OCN1CCCCCO[N+](=O)[O-]`, the melting point is 39 to 41 °C.

Regarding `CCOc1nc2ccccc2nc1N(C)C(=O)N1CCN(c2cc(Cl)cc(Cl)c2)CC1`, the melting point was in the range of 129 to 131 °C.

The molecule `COC(=O)c1ccc2sc(/C=C/c3cccc(N)c3)nc2c1` had a melting point of 165 to 167 °C.

Molecule `COc1cc(Br)ccc1-c1ccc(Br)cc1N` displayed a melting point of 94.5 to 97 °C.

`CC(C)(C(=O)O)c1ccc(Br)c([N+](=O)[O-])c1` had a melting point of 167 to 171 °C.

For the molecule `O=c1ccoc(C(OC2CCCCO2)c2ccccc2)c1OCc1ccccc1` (stereo not given), the melting point lay within 115 to 116 °C.

`CCn1c(=O)n(O)c(=O)c2cc(F)c(F)cc21`: the melting point lay in the range of 172 to 174 °C.

With `CCCc1nn(-c2ccc(C(F)(F)F)cn2)cc1CCCOc1c(C)cccc1CC(=O)O`, the melting point lay in the range of 134 to 135 °C.

In turn, `CC1(CCO)c2ccccc2-c2ccccc21` registered a melting point of 84 to 85 °C.

As for `COc1ccc2c(n1)C(=O)c1nccc3c1c-2nc1ccccc13`, the melting point is greater than 260 °C.

As for `CCOC(=O)C1(c2ccccc2)CCN(c2ncccn2)CC1`, the melting point lay within 119 to 120 °C.

The molecule `CCCC[C@H](C)CC(=O)N[C@H](CCC(=O)N[C@@H](C)C(=O)N[C@H](C)C(=O)O)C(=O)O` registered a melting point of 165 to 168 °C.

In turn, `COc1ccc(S(=O)(=O)Nc2ccccc2NC(=O)c2ccc(OCc3ccccc3)cc2)cc1` showed a melting point of 148 to 149 °C.

The molecule `CC(=O)c1ccc2c(c1)Sc1ccccc1C=C2` displayed a melting point of 82 to 84 °C.

Molecule `O=C(O)c1ccc(NC(=O)c2ccccc2-c2ccccc2)cc1` gave a melting point of 246 to 249 °C.

As a reminder, the melting point is the temperature, or range, at which the solid turns liquid.
